# Laboratory results: the supplement of paper PMC9663587
# Key:
# Test in all cases: GRmax, 72 h; higher = less effect;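 also: breast cell lines in 384-well plates, nine doses across a 10^4 range, Dye Drop imaging of viable cells vs DMSO and time-zero plates, GR 0 means no net growth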
# HCC1395 = tested on: HCC1395
# MDAMB361 = tested on: MDAMB361
# BT474 = tested on: BT474
# SKBR3 = tested on: SKBR3
# PDX1328 = tested on: PDX1328
# ZR7530 = tested on: ZR7530
# PDX1258 = tested on: PDX1258
# SUM149 = tested on: SUM149
# MDAMB468 = tested on: MDAMB468
# MCF7 = tested on: MCF7
# MDAMB415 = tested on: MDAMB415
# HCC202 = tested on: HCC202
SMILES,"GRmax, 72 h (HCC1395) [GR]","GRmax, 72 h (MDAMB361) [GR]","GRmax, 72 h (BT474) [GR]","GRmax, 72 h (SKBR3) [GR]","GRmax, 72 h (PDX1328) [GR]","GRmax, 72 h (ZR7530) [GR]","GRmax, 72 h (PDX1258) [GR]","GRmax, 72 h (SUM149) [GR]","GRmax, 72 h (MDAMB468) [GR]","GRmax, 72 h (MCF7) [GR]","GRmax, 72 h (MDAMB415) [GR]","GRmax, 72 h (HCC202) [GR]"
CCC(=O)Nc1ccc(C(=O)Nc2ccc(Nc3ncc4c(n3)N(C)c3ccc(C)cc3C(=O)N4C)cc2)cc1 [FMF-03-145-1],-0.151,0.286,-0.227,-0.0145,0.128,-0.0468,-0.267,-0.101,-0.46,0.0265,0.0653,0.23
COc1cc(N2CCN(C)CC2)ccc1Nc1ncc2c(n1)N(C)c1ccccc1C(=O)N2CC(F)(F)F [FMF-03-146-1],0.64,0.362,1.07,0.676,0.893,0.937,1.2,0.971,0.706,0.78,0.959,0.892
CN1CC[C@H](c2c(O)cc(O)c3c(=O)cc(-c4ccccc4Cl)oc23)[C@H](O)C1 [Flavopiridol] (max 1 µM),-0.644,-0.389,-0.751,-0.656,-0.0976,-0.662,-0.507,-0.605,-0.351,-0.291,-0.303,0.027
CC(C)n1nc(-c2ccc3oc(N)nc3c2)c2c(N)ncnc21 [INK128/MLN0128] (max 3.162 µM),-0.0258,-0.846,-0.587,-0.506,-0.159,-0.109,-0.138,0.268,0.0572,-0.045,-0.338,-0.01
CC(C)NC[C@@H](C(=O)N1CCN(c2ncnc3c2[C@H](C)C[C@H]3O)CC1)c1ccc(Cl)cc1 [Ipatasertib/GDC0068] (max 10 µM),0.19,-0.58,-0.358,0.356,0.704,0.438,0.399,0.291,0.309,0.25,-0.698,0.306
CN(C)C(=O)c1cc2cnc(Nc3ccc(N4CCNCC4)cn3)nc2n1C1CCCC1 [LEE011/Ribociclib] (max 10 µM),0.403,0.0436,0.583,0.476,0.265,0.41,1.08,0.605,0.947,0.31,0.231,0.778
CCNC(=O)c1noc(-c2cc(C(C)C)c(O)cc2O)c1-c1ccc(CN2CCOCC2)cc1 [Luminespib/NVP-AUY922] (max 1 µM),-0.152,-0.885,-0.505,-0.0766,-0.253,0.1,-0.29,-0.392,-0.174,0.0015,-0.305,0.115
CCOc1cc2ncc(C#N)c(Nc3ccc(OCc4ccccn4)c(Cl)c3)c2cc1NC(=O)/C=C/CN(C)C [Neratinib/HKI272] (max 3.162 µM),0.0167,-0.528,-0.919,-0.253,-0.0735,-0.532,0.203,0.155,-0.383,0.0582,0.0922,0.0762
O=C(c1cc(Cc2n[nH]c(=O)c3ccccc23)ccc1F)N1CCN(C(=O)C2CC2)CC1 [Olaparib/AZD2281] (max 10 µM),0.0945,0.0945,0.64,0.565,0.631,0.653,0.577,0.205,0.341,0.514,0.816,0.606
CC(=O)O[C@H]1C(=O)[C@@]2(C)[C@H]([C@H](OC(=O)c3ccccc3)[C@]3(O)C[C@H](OC(=O)[C@H](O)[C@@H](NC(=O)c4ccccc4)c4ccccc4)C(C)=C1C3(C)C)[C@]1(OC(C)=O)CO[C@@H]1C[C@@H]2O [Paclitaxel] (max 1 µM),-0.458,-0.609,-0.636,-0.34,-0.403,-0.597,-0.0818,-0.257,-0.522,-0.106,-0.344,0.0855
CS(=O)(=O)N1CCN(Cc2cc3nc(-c4cccc5[nH]ncc45)nc(N4CCOCC4)c3s2)CC1 [Pictilisib/GDC0941] (max 10 µM),-0.0143,-0.938,-0.828,-0.127,-0.167,-0.342,0.0518,0.341,-0.0613,-0.159,-0.687,-0.0303
O=C1NC(=NCc2cccs2)SC1=Cc1ccc2ncccc2c1 [R0-3306] (max 10 µM),-0.235,0.111,0.144,-0.0433,0.399,0.065,-0.274,-0.171,-0.271,0.067,0.914,0.203
CNCc1ccc(-c2[nH]c3cc(F)cc4c3c2CCNC4=O)cc1 [Rucaparib] (max 10 µM),0.234,0.11,0.852,0.757,0.634,0.674,0.564,0.559,0.345,0.635,0.642,0.523
CC1(N)CCN(c2cnc(-c3cccc(Cl)c3Cl)c(N)n2)CC1 [SHP099] (max 10 µM),0.548,0.626,0.889,1.02,0.58,0.715,1.09,0.866,0.567,0.847,0.75,0.733
CN1CCN(CCOc2cc(OC3CCOCC3)c3c(Nc4c(Cl)ccc5c4OCO5)ncnc3c2)CC1 [Saracatinib/AZD0530] (max 10 µM),0.12,-0.178,-0.548,0.279,-0.108,-0.159,0.184,0.188,0.178,0.274,0.324,-0.22
Cc1cc(C(C)Nc2ccccc2)c2nc(N3CCOCC3)cc(=O)n2c1 (configuration not stated) [TGX221] (max 10 µM),0.458,0.799,0.524,0.75,0.778,0.925,0.997,1.02,0.723,0.789,0.184,0.782
CN(C)C/C=C/C(=O)Nc1ccc(C(=O)Nc2cccc(Nc3ncc(Cl)c(-c4c[nH]c5ccccc45)n3)c2)cc1 [THZ1] (max 1 µM),-0.784,-0.72,-0.658,-0.789,-0.171,-0.638,-0.716,-0.52,-0.377,-0.469,-0.421,-0.0084
CN(C)C/C=C/C(=O)Nc1ccc(C(=O)N2CCC[C@@H](Nc3ncc(Cl)c(-c4c[nH]c5ccccc45)n3)C2)cc1 [THZ531] (max 1 µM),-0.587,-0.743,-0.861,-0.619,-0.184,-0.732,-0.575,-0.509,-0.153,-0.367,-0.344,0.0684
CN(C)C/C=C/C(=O)Nc1ccc(C(=O)Nc2cccc(Nc3cc(-c4c[nH]c5ccccc45)ncn3)c2)cc1 [THZ-P1-2] (max 10 µM),-0.908,0.142,-0.697,-0.777,0.656,-0.964,-0.891,-0.589,-0.523,-0.708,-0.513,-0.2
Cc1nc(-c2cn3c(n2)-c2ccc(-c4cnn(C(C)(C)C(N)=O)c4)cc2OCC3)n(C(C)C)n1 [Taselisib/GDC0032] (max 10 µM),-0.0177,-0.99,-0.989,-0.207,-0.0629,-0.478,0.106,-0.224,0.0046,-0.255,-0.792,0.0192
O=C1NC(=O)[C@@H](c2cn3c4c(cccc24)CCC3)[C@@H]1c1c[nH]c2ccccc12 [Tivantinib/ARQ197] (max 10 µM),-0.483,-0.606,-0.323,-0.352,-0.479,-0.539,-0.209,-0.224,-0.455,-0.0512,-0.184,0.114
Nc1ccc(-c2ccc3ncc4ccc(=O)n(-c5cccc(C(F)(F)F)c5)c4c3c2)cn1 [Torin2] (max 1 µM),-0.142,-0.964,-0.648,-0.342,-0.249,-0.0202,-0.207,0.0058,-0.0415,-0.133,-0.372,0.0177
CC[C@@H]1C(=O)N(C)c2cnc(Nc3ccc(C(=O)N[C@H]4CC[C@H](N5CCN(CC6CC6)CC5)CC4)cc3OC)nc2N1C(C)C [Volasertib/BI6727] (max 1 µM),-0.296,-0.497,-0.284,-0.349,-0.529,-0.42,-0.232,-0.297,-0.449,-0.0338,-0.314,0.224
O=C(CCCCCCC(=O)Nc1ccccc1)NO [Vorinostat] (max 10 µM),-0.0589,-0.939,-0.924,-0.632,-0.285,-0.318,-0.0232,-0.0704,-0.119,-0.175,-0.503,0.104
C=CC(=O)Nc1ccc(C(=O)Nc2[nH]nc3c2CN(C(=O)N[C@H](CN(C)C)c2ccccc2)C3(C)C)cc1 [YKL-5-124] (max 10 µM),-0.267,-0.835,-0.566,-0.602,0.177,-0.625,-0.587,-0.104,-0.493,-0.268,-0.0129,-0.178
CN1CCN(C(=O)c2ccc3cc(CCNc4ncnc5ccc(C#N)cc45)ccc3c2)CC1 [senexin b] (max 10 µM),0.307,0.271,0.107,0.797,1.02,0.0824,0.603,0.747,0.132,0.474,0.609,0.705
